Measurements published in patent US12606540B2, “Triazolone compound” (MEDSHINE DISCOVERY INC., priority 2020, dated 2026).
Like-named read-outs stand apart in the source and are kept apart here.

What was measured:
[1] = system: influenza virus A/Weiss/43 (H1N1); experiment: Influenza virus cytopathic effect (CPE) experiment in MDCK cells; assay type: cell-based; conditions: unidentified influenza virus, H1N1, 120 h, 5 days incubation, CCK8
DHODH enzyme = DHODH enzyme (Homo sapiens, UniProt Q02127); experiment: DHODH enzyme inhibitory activity in vitro (resazurin fluorescence); assay type: biochemical; conditions: 5 nM DHODH, 15 μM L-DHO, 80 μM Resazurin
Sequence of DHODH enzyme (Q02127 whole entry): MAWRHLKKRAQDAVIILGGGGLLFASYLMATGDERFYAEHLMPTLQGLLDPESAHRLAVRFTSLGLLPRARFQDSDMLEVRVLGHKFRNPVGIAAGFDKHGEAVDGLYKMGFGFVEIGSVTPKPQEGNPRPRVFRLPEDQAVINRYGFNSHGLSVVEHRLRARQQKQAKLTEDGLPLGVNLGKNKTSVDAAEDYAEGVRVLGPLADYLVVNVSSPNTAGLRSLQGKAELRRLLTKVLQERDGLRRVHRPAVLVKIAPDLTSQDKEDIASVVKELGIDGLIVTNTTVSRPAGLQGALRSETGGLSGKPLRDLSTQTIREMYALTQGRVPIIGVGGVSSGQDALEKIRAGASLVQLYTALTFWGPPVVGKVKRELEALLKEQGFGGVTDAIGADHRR
Description: The DHODH inhibitory activity of the compounds was detected by the following experimental method, and the experimental results are as shown in Table 1.
DHODH uses flavin mononucleotide FMN to catalyze the oxidation of dihydrooratic acid DHO to produce oratic acid, while the re-oxidation of FMN requires the participation of coenzyme CoQ. In the experiment of detecting the DHODH enzyme activity, CoQ was replaced by Resazurin dye as the final electron acceptor in the enzyme activity reaction. Resazurin solution is blue, and the resorufin generated after reduction has red fluorescence, and the fluorescence signal can be detected under the 535 nm of excitation wavelength and the 590 nm of emission wavelength. The components of the reaction buffer used in the experiment were 100 mM Hepes pH 7.0, 150 mM NaCl, 0.3% CHAPS, 0.5 mg/mL BSA, 0.1 μM FMN and 1% DMSO. The final concentration of DHODH enzyme in the reaction system was 5 nM, and the final concentration of substrate L-DHO was 15 μM, the final concentration of indicator Resazurin was 80 μM. The components of the reaction stop buffer were 100 mM Hepes pH 7.0 and 5 mM Orotate. The specific method was as follows: 2-fold final concentration of the DHODH enzyme solution was mixed with the compound, incubated at room temperature for 20 min, 2-fold final concentration of the substrate mixture solution of L-DHO and resazurin was added and reacted, incubated at room temperature away from light for 45 min. Then the reaction was stopped by adding 2-fold final concentration of the reaction stop buffer to the reaction system, and incubated at room temperature for 10 min, the fluorescence signal of the reaction system was detected with EnVision under the condition of Ex/Em=535/590 nm.

[2] = Pharmacokinetic evaluation in mice (IV and PO); assay type: in vivo, female Balb/c mice; conditions: for AUC(0-inf) / AUC(0-t) / clearance / half-life / MRT last / Vd / Tmax / C0 / Cmax: female, Balb/c, mouse, plasma; for MRT last: read-out: MRT0-last; for Vd: read-out: VdSS
Experimental: Experiment process: 0.04 mg/mL of a clarified solution of the test compound in 5% DMSO/10% Solutol solution/85% water was injected into female Balb/c mice (overnight fasting, 7-9 weeks of age) via tail vein, with dosage of 0.2 mg/kg. 0.1 mg/mL of the test compound in 5% DMSO/10% Solutol solution/0.2% Tween80/84.8% water was administered by gavage to female Balb/c mice (overnight fasting, 7-9 weeks of age), with dosage of 1 mg/kg. About 30 μL of blood was collected from the jugular vein at 0.0833, 0.25, 0.5, 1.0, 2.0, 4.0, 8.0, 10 and 24 h and from the tail vein at 0.25, 0.5, 1.0, 2.0, 4.0, 8.0 and 24 h after administration for both groups of animals, and were placed in anticoagulation tubes with EDTA-K2, and the blood was separated by centrifugation to obtain plasma. Plasma concentrations were detected by LC-MS/MS, and relevant pharmacokinetic parameters were calculated using WinNonlin™ Version 6.3 (Pharsight, Mountain View, CA) pharmacokinetic software with a non-compartmental model linear logarithmic trapezoid method.

MDR1 (P-glycoprotein) = experiment: Permeability evaluation on MDR1-MDCK II cell line; conditions: dog, MDCK-MDR1, pH 7.4
[3] = system: human peripheral blood mononuclear cells; experiment: Proliferation inhibition of peripheral blood mononuclear cells (flow cytometry); assay type: cell-based; conditions: PBMC, PHA-M 5 μg/mL stimulation, 48 hours
Experimental: Flow cytometry was used to detect cell proliferation of human peripheral blood mononuclear cells.
• Cell complete medium: 445 mL of RPMI1640 cell culture+50 mL of fetal bovine serum+5 mL of double antibody • Buffer 1: 9.9 mL of phosphate buffer+0.1 mL of 10% bovine serum protein • Buffer 2: 10 mL of fetal bovine serum+490 mL of phosphate buffer 3.2 Cell Thawing • 3.2.1 20 mL of cell complete medium was added to a 50 mL of centrifuge tube and pre-heated in a 37° C. water bath for 5 minutes; • 3.2.2 the cell cryotubes were removed from the liquid nitrogen storage tank and placed on dry ice for 5-10 minutes to allow the liquid nitrogen to evaporate fully; • 3.2.3 the cell cryotubes were clamped with forceps and placed in the water bath, and shaken gently to thaw the frozen cells quickly; • 3.2.4 the thawed cells were transferred to the pre-heated cell complete medium with a pipette, centrifuged at 350 g for 5 min, then the supernatant was discarded, and the cells was resuspended by adding 10 mL of phosphate buffer; • 3.2.5 counting by cell counter, and cell viability and cell count were recorded. 3.3 Cell Labeling • 3.3.1 Cell proliferation labeling solution (CellTrace™ Violet, 1:1000 dilution) was prepared • 3.3.2 the above mixture was centrifuged at 350 g for 5 minutes, and the supernatant was discarded, then the cells (20×10^6/mL) were resuspended by adding Buffer 1, and the resuspended cells were gently blown by pipette, and an equal volume of cell proliferation labeling solution (prepared in 3.3.1) was added, and gently blown well by pipette; • 3.3.3 incubating in a 5% CO2, 37° C. cell incubator for 18 minutes; • 3.3.4 the 5-fold volume of cell complete medium was added and leaved at room temperature for 5 minutes to terminate the staining reaction; • 3.3.5 the above mixture was centrifuged at 350 g for 5 minutes, and the supernatant was discarded, then the cells were resuspended by adding 10 mL of cell complete medium, counted by cell counter, and cell viability and cell count were recorded; • 3.3.6 the above mixture was centrifuged at 350 g for 5 minutes, and the supernatant was discarded, then the corresponding volume of cell complete medium was added according to the cell counting results, and the density of the resuspended cells was 2×10^6/mL and was to be used. 3.4 Cell Proliferation Stimulation • 3.4.1 50 μL/well prepared cell suspension (1×10^5 cells/well), 50 μL of 4×PHA-M (the final concentration is 5 μg/mL), 50 μL of 4×test compound, 50 μL of cell complete medium were added to the wells of 96-well cell culture plate, and the corresponding control group was set up; (total volume of the reaction system is 200 μL) • 3.4.2 the cell culture plate was placed and incubated in a 5% CO2, 37° C. cell incubator for 48 hours. 3.5 Cell Proliferation Detection • 3.5.1 the above mixture was centrifuged at 350 g for 5 minutes and the supernatant was transferred to a new cell culture plate and stored at −80° C.; • 3.5.2 200 μL of Buffer 2 was add to the wells of the culture plate, and the above mixture was centrifuged at 350 g and the supernatant was discarded; • 3.5.3 cell dead or living staining solution (7-AAD, 1:100 dilution) was prepared with Buffer 2; • 3.5.4 100 μL/well of dead or living staining solution was added, and gently blown and mixed well by pipette, and stained at room temperature for 10 min; • 3.5.5 cell proliferation was detected by flow cytometry analyzer and analyzed by Flowjo software.

CCn1c(CO)nn(-c2cc(O[C@@H](C)C(F)(F)F)c(/C(F)=C/c3c(F)cccc3Cl)cc2F)c1=O [Compound 1]
EC50 [1]: < 1 nM | IC50 (DHODH enzyme): 0.71 nM

CCn1c(CO)nn(-c2cc(O[C@@H](C)C(F)(F)F)c(/C(F)=C/c3c(F)cncc3Cl)cc2F)c1=O [Compound 2]
EC50 [1]: 20 nM | IC50 (DHODH enzyme): 3.9 nM

CCn1c(CO)nn(-c2cc(O[C@@H](C)C(F)(F)F)c(/C(F)=C/c3cccnc3OC)cc2F)c1=O [Compound 6]
Tlast ([2]; IV 0.2 mg/kg): 24.0 h | F ([2]; PO 1 mg/kg): 85.4% | Tlast ([2]; PO 1 mg/kg): 24.0 h | AUC(0-inf) ([2]; IV 0.2 mg/kg): 2.13 µM·h | AUC(0-t) ([2]; IV 0.2 mg/kg): 1.96 µM·h | clearance ([2]; IV 0.2 mg/kg): 3.14 mL/min/kg | half-life ([2]; IV 0.2 mg/kg): 6.83 h | MRT last ([2]; IV 0.2 mg/kg): 5.93 h | Vd ([2]; IV 0.2 mg/kg): 1.53 L/kg | AUC(0-inf) ([2]; PO 1 mg/kg): 9.08 µM·h | AUC(0-t) ([2]; PO 1 mg/kg): 7.79 µM·h | Tmax ([2]; PO 1 mg/kg): 2 h | half-life ([2]; PO 1 mg/kg): 9.19 h | MRT last ([2]; PO 1 mg/kg): 7.76 h | C0 ([2]; IV 0.2 mg/kg): 640 nM | Cmax ([2]; PO 1 mg/kg): 935 nM | EC50 [1]: 67 nM | Papp A→B at 150 min, 2 μM (MDR1 (P-glycoprotein)): 3.72 ×10⁻⁶ cm/s | Papp B→A at 150 min, 2 μM (MDR1 (P-glycoprotein)): 3.55 ×10⁻⁶ cm/s | Papp at 150 min, 2 μM (MDR1 (P-glycoprotein)): 1 to 5.5 ×10⁻⁶ cm/s | efflux ratio at 150 min, 2 μM (MDR1 (P-glycoprotein)): 0.95 | IC50 (DHODH enzyme): 12.4 nM

CCn1c(C(=O)O)nn(-c2cc(O[C@@H](C)C(F)(F)F)c(/C(F)=C/c3c(F)cncc3Cl)cc2F)c1=O [Compound 21]
IC50 (DHODH enzyme): 9 nM

CCn1c(CO)nn(-c2cc(OC(C)C(F)(F)F)c(C=Cc3ncccc3Cl)cc2F)c1=O (stereo not shown) [Compound 22]
IC50 (DHODH enzyme): 121 nM

CCn1c(CO)nn(-c2cc(O[C@@H](C)C(F)(F)F)c(/C=C/c3cccnc3OC)cc2F)c1=O [Compound 23]
IC50 (DHODH enzyme): 9 nM

CCn1c(C(=O)O)nn(-c2cc(O[C@@H](C)C(F)(F)F)c(/C(F)=C/c3ncccc3Cl)cc2F)c1=O [Compound 24]
IC50 (DHODH enzyme): 8 nM

CCn1c(CO)nn(-c2nc(O[C@@H](C)C(F)(F)F)c(/C(F)=C/c3ncccc3Cl)cc2F)c1=O [Compound 25]
IC50 (DHODH enzyme): 6 nM | IC50 [3]: 2 nM

CCn1c(CO)nn(-c2cc(O[C@@H](C)C(F)(F)F)c(/C(F)=C/c3cccnc3Cl)cc2F)c1=O [Compound 26]
Tlast ([2]; IV 0.2 mg/kg): 24 h | F ([2]; PO 1 mg/kg): 80.2% | AUC(0-inf) ([2]; IV 0.2 mg/kg): 2.86 µM·h | AUC(0-t) ([2]; IV 0.2 mg/kg): 2.29 µM·h | clearance ([2]; IV 0.2 mg/kg): 2.32 mL/min/kg | half-life ([2]; IV 0.2 mg/kg): 9.68 h | MRT last ([2]; IV 0.2 mg/kg): 8.04 h | Vd ([2]; IV 0.2 mg/kg): 1.93 L/kg | AUC(0-inf) ([2]; PO 1 mg/kg): 13 µM·h | AUC(0-t) ([2]; PO 1 mg/kg): 9.2 µM·h | Tmax ([2]; PO 1 mg/kg): 1 h | half-life ([2]; PO 1 mg/kg): 14.8 h | MRT last ([2]; PO 1 mg/kg): 8.9 h | C0 ([2]; IV 0.2 mg/kg): 451 nM | Cmax ([2]; PO 1 mg/kg): 872 nM | EC50 [1]: 2.4 nM | Papp A→B at 150 min, 2 μM (MDR1 (P-glycoprotein)): 8.59 ×10⁻⁶ cm/s | Papp B→A at 150 min, 2 μM (MDR1 (P-glycoprotein)): 7.76 ×10⁻⁶ cm/s | Papp at 150 min, 2 μM (MDR1 (P-glycoprotein)): > 5.5 ×10⁻⁶ cm/s | efflux ratio at 150 min, 2 μM (MDR1 (P-glycoprotein)): 0.9 | IC50 (DHODH enzyme): 1.5 nM | IC50 [3]: 4.6 nM

CCn1c(CO)nn(-c2cc(O[C@@H](C)C(F)(F)F)c(/C(F)=C/c3cnccc3C)cc2F)c1=O [Compound 27]
IC50 (DHODH enzyme): 1.5 nM
